# Reference: patent US12391683B2, “Therapeutic compounds and methods” (Actio Biosciences, Inc., priority 2022, dated 2025)
# Several values for one entry are separate records, joined by “and”; a condition that tells them apart may be missing. Equal values may be shown once.
# Experiments:
# [1] = human clinical trials, background statement; cited from earlier work
# Human TRPV4 = Human TRPV4 (Homo sapiens, UniProt Q9HBA0); assay: TRPV4 calcium flux assay (FLIPR, antagonist mode); type: cell-based; parameters: HiBiT (inferred from the expression read-out); host or cells: HEK293T; conditions: HEK293T cells transfected with hTRPV4; antagonist mode vs EC80 of TRPV4 agonist; average of at least 3 separate experiments; read-out: Human TRPV4 Ca2+ Assay IC50
# Protocol: Example 23. TRPV4 Calcium Assay Methods
# Human embryonic kidney 293T (HEK293T/293T) cells are cultured in complete media (Dulbecco's Modified Eagle Medium (DMEM), containing 10% fetal bovine serum (FBS) and 1× penicillin-streptomycin) in a T-75 tissue culture flask. At 90% confluency, cells are detached using TrypLE™ Express cell dissociation buffer. TrypLE™ Express buffer is neutralized by adding culture media in excess. Cells are gently triturated and counted using trypan blue in a Countess 3 automated cell counter. Cells are transferred to a 50 mL conical tube and spun down at 1000 rotations per minute (RPM) for five minutes in a benchtop centrifuge. Media containing detaching enzyme is aspirated off the pellet, followed by resuspension to the desired concentration of 2×10^6 cells per mL in complete DMEM.
# Transfection preparations were scaled using a combination of 6 μg of TRPV4 wild-type or mutant plasmid DNA, 36 μL of Fugene6 transfection reagent, and 1000 μL of OptiMEM media for every 2×10^6 cells needed. The transfection mix is left to incubate for 20 minutes at room temperature. Total seeding mixture (1000 μL 2×10^6 cells, 1000 μL transfection mix previously described, and 1000 μL complete DMEM) for one transfection is combined into a 15 mL conical tube. The cells and transfection plasmid are mixed thoroughly and dispensed into a reservoir. This is plated at 25 μL per well in a black 384, black-well, clear-bottom, tissue-culture treated plate. This yields approximately 16,000 cells per well. Plasmid DNA constructs were designed by Actio Biosciences in conjunction with Genscript, and generated by Genscript, for all hTRPV4 wild-type and hTRPV4 P/LP (ClinVar) mutations (G78W, P82S, T891, P97R, R186Q, R232C, R232P, R237G, R237Q, R237 L, R269C, R269H, R269S, G270V, R271P, F273 L, K276E, E278K, G280S, Y281S, R315G, R315W, R316C, R316H, R316 L, R316S, I331F, D333G, S403T, K403T, K407E, S542P, S542Y, L543R, Y591N, R594C, R594H, R594S, G600E, Y602C, R616Q, F617 L, L618P, V6201, A716S, A716T, L735R, T740I, R775K, W785R, E797D, E797K, P799A, P799R, P799S, P799 L, G800D, K801E, P827H, F471del, N797del). The remaining cells are plated in the same manner, in a 384, white-well, clear-bottom, tissue-culture treated plate for expression and relative cell number determination. Plates are placed in the incubator at 37° C. overnight.
# Compounds were brought to 10 mM in DMSO. DMSO concentration was kept constant throughout the dilution of any compound. DMSO negative control and concentration-response curves were nanoliter-spotted via PICO8 automated dispenser at 5× test concentration into a 384w clear polypropylene plate containing 1×HBSS+20 mM HEPES buffer. A predetermined concentration equivalent to the EC80 of TRPV4 agonist on hTRPV4 was prepared at 6× in 1×HBSS+20 mM HEPES and loaded into a separate 384-well v-bottom polypropylene plate.
# Approximately 18 hours post-transfection, the cell plates were removed from the incubator and equal volume (25 uL) Calcium 6 dye was gently added. Calcium 6 dye containing probenecid (final 5 mM) was prepared per manufacturer's instructions. Cell plate was returned to the incubator for 1 hour, at 37° C.
# FLIPR Penta was programmed to add compound using the following settings • Pipettor Head=384 • Read Mode 1 Excitation Wavelength=470_495 • Read Mode 1 Emission Wavelength=515_575 • Read Mode 1 Exposure=0.1000 • Read Mode 1 Gain=6.50 • Read Mode 1 Excitation Intensity=20 • Volume of addition=12.5 μL • Height=40 μL • Speed=15 μL/second
# Raw data was exported and analyzed for maximum signal (RFU) after agonist addition—the average baseline (RFU) in the first 15 seconds per well. Data was plotted in GraphPad Prism to determine EC50 or IC50 of the molecules.
# Hepatocytes [2] = assay: Hepatocytes predicted clearance, cyno
# Hepatocytes [3] = assay: Hepatocytes predicted clearance, human
# [4] = target: recombinant human CYP3A4 enzyme (Homo sapiens, UniProt P08684); assay: CYP3A4 incubation assay; type: in vitro ADME; parameters: Metabolic Stability in Recombinant Human CYP3A4 + NADPH (% remaining after 25 min): dose or concentration left out as unconfirmed
# Protocol: Example 24. CYP3A4 Incubation Assay
# Compounds (final concentration […]) were incubated in 100 mM phosphate buffer containing 100 pmol/mL recombinant human CYP3A4 enzyme for 0, 5, 10, 15 and 25 minutes.
# Testosterone was used as positive control. Reaction was initiated by the addition of NADPH (final concentration […]) and carried out at 37° C. The reaction was stopped by the addition of 4 volumes of cold acetonitrile (with 100 nM alprazolam, 200 nM labetalol, 200 nM imipramine and 2 μM ketoprofen as internal standards). Samples were centrifuged at 3,220 g for 40 minutes to precipitate protein. 70 μL supernatant was transferred to the analysis plate containing 110 μL of acetonitrile for LC-MS/MS analysis.
# The following table indicates the percentage remaining for the indicated examples after incubation with recombinant Human CYP3A4 after 25 minutes under the same conditions as described for Example […].
# Hepatocytes [5] = assay: Hepatocytes predicted clearance, dog
# Hepatocytes [6] = assay: Hepatocytes predicted clearance, rat
# Hepatocytes [7] = assay: Hepatocytes predicted clearance, mouse
# recombinant human CYP3A4 enzyme, sequence (P08684 whole entry): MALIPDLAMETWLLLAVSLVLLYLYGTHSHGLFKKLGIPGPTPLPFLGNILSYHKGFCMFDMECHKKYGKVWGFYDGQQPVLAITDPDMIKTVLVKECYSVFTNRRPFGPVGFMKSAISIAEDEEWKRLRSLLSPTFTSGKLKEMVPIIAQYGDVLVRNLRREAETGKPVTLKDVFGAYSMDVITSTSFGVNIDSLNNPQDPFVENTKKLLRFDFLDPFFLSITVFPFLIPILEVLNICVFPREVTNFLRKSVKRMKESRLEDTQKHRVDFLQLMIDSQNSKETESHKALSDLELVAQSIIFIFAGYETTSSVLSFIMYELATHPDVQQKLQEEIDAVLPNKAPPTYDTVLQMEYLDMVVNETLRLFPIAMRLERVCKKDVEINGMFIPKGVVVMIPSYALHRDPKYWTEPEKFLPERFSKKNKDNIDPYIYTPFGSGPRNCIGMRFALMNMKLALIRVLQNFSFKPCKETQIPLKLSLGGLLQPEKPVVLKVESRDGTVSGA
# Human TRPV4, sequence (Q9HBA0 whole entry): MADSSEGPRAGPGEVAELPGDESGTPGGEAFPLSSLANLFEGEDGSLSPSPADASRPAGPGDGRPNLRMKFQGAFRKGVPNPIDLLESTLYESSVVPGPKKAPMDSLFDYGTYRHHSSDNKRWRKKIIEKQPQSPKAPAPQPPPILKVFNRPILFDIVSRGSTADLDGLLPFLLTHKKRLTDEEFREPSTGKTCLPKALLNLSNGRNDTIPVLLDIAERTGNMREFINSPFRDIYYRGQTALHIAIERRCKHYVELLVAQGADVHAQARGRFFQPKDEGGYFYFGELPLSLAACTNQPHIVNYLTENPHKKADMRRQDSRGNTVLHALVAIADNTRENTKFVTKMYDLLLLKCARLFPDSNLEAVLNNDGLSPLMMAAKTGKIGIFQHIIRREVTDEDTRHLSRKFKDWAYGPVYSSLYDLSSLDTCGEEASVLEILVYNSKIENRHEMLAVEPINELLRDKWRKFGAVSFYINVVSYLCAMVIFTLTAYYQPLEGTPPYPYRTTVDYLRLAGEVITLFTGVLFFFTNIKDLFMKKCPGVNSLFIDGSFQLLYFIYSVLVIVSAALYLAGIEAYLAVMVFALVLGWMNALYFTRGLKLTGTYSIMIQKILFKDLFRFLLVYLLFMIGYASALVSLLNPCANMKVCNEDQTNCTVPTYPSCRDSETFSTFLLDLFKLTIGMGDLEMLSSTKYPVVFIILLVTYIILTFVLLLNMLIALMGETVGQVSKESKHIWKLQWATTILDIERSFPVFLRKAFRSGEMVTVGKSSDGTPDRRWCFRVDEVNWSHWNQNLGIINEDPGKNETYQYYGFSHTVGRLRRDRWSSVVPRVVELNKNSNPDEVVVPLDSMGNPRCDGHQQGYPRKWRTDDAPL
IC50 (Human TRPV4) [nM],Hepatocytes predicted clearance in cyno (Hepatocytes [2]) [mL/min/kg],Hepatocytes predicted clearance in human (Hepatocytes [3]) [mL/min/kg],"CYP3A4 Clint ([4]; human, recombinant enzyme)","Metabolic Stability in Recombinant Human CYP3A4 + NADPH (% remaining after 25 min) ([4]; human, recombinant enzyme, 25 min) [%]",Hepatocytes predicted clearance in dog (Hepatocytes [5]) [mL/min/kg],Hepatocytes predicted clearance in rat (Hepatocytes [6]) [mL/min/kg],Hepatocytes predicted clearance in mouse (Hepatocytes [7]) [mL/min/kg],SMILES,efficacy across several human disease indications [1],"CYP3A4 Clint ([4]; 100 pmol/mL recombinant human CYP3A4, 37° C., 0-25 min)"
10,21.5,< 0.17,0.18 μL/min/pmol CYP450,69.6,7.17,20.7,44.3,"CC(C)(O)c1cnc(N2C[C@@]3(CCC[C@](C)(Cn4cnc5ccc(C#N)cc54)C3)OC2=O)cn1 [GSK2798745, reference compound]",failed to show efficacy,
391,37.5,< 0.17,"<0.07, <0.07 μL/min/pmol CYP450",,30,54.5,281.2,"CC(C)(O)c1cnc(N2C[C@@]3(CC[C@H]4C[C@@]4(Cn4cnc5ccc(C#N)cc54)C3)OC2=O)cn1 (single isomer, unassigned) [Example 8]",,

SMILES,IC50 (Human TRPV4) [nM],Hepatocytes predicted clearance in cyno (Hepatocytes [2]) [mL/min/kg],Hepatocytes predicted clearance in human (Hepatocytes [3]) [mL/min/kg],"CYP3A4 Clint ([4]; human, recombinant enzyme)","Metabolic Stability in Recombinant Human CYP3A4 + NADPH (% remaining after 25 min) ([4]; human, recombinant enzyme, 25 min) [%]",Hepatocytes predicted clearance in dog (Hepatocytes [5]) [mL/min/kg],Hepatocytes predicted clearance in rat (Hepatocytes [6]) [mL/min/kg],Hepatocytes predicted clearance in mouse (Hepatocytes [7]) [mL/min/kg],efficacy across several human disease indications [1],"CYP3A4 Clint ([4]; 100 pmol/mL recombinant human CYP3A4, 37° C., 0-25 min)"
"CC(C)(O)c1cnc(N2C[C@@]3(CCC(F)(F)[C@H](Cn4cnc5ccc(C#N)cc54)C3)OC2=O)cn1 [Example 2, 1-(((5S,7S)-8,8-Difluoro-3-(5-(2-hydroxypropan-2-yl)pyrazin-2-yl)-2-oxo-1-oxa-3-azaspiro[4.5]decan-7-yl)methyl)-1H-benzo[d]imidazole-6-carbonitrile]",217,34.8,< 0.17,,,1.3,< 0.17,31,,0.08 μL/min/pmol CYP450 and < 0.07 μL/min/pmol CYP450
